# Results taken from ChEMBL document CHEMBL1201862, “PubChem BioAssay data set” (2004).
#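 All cell lines were grown in 96-well plates and treated with compound for 48 hours. GI50: concentration for 50% inhibition of growth.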 Active and inactive are the calls of the source. Rule as the data show it: active = GI50 up to about 1.1 µM and inactive = higher.
# How the values were obtained:
# Experiment in all cases: DTP human tumour cell line panel, 48 h
# 786-0 = test system: 786-0
# A498 = test system: A498
# A549 = test system: A549
# ACHN = test system: ACHN
# CAKI-1 = test system: CAKI-1
# CCRF-CEM = test system: CCRF-CEM
# COLO 205 = test system: COLO 205
# DLD-1 = test system: DLD-1
# DMS-114 = test system: DMS-114
# DMS-273 = test system: DMS-273
# EKVX = test system: EKVX
# HCC 2998 = test system: HCC 2998
# HCT-15 = test system: HCT-15
# HL-60 = test system: HL-60
# HOP-18 = test system: HOP-18
# HOP-62 = test system: HOP-62
# HOP-92 = test system: HOP-92
# HT-29 = test system: HT-29
# IGROV-1 = test system: IGROV-1
# K562 = test system: K562
# KM-20L2 = test system: KM-20L2
# KM12 = test system: KM12
# LOX IMVI = test system: LOX IMVI
# LXFL 529 = test system: LXFL 529
# M14 = test system: M14
# M19-MEL = test system: M19-MEL
# MOLT-4 = test system: MOLT-4
# Malme-3M = test system: Malme-3M
# NCI-H226 = test system: NCI-H226
# NCI-H23 = test system: NCI-H23
# NCI-H460 = test system: NCI-H460
# NCI-H522 = test system: NCI-H522
# OVCAR-3 = test system: OVCAR-3
# OVCAR-4 = test system: OVCAR-4
# OVCAR-5 = test system: OVCAR-5
# OVCAR-8 = test system: OVCAR-8
# RPMI-8226 = test system: RPMI-8226
# RXF 631 = test system: RXF 631
# SF-268 = test system: SF-268
# SF-295 = test system: SF-295
# SF-539 = test system: SF-539
# SK-MEL-28 = test system: SK-MEL-28
# SK-MEL-2 = test system: SK-MEL-2
# SK-MEL-5 = test system: SK-MEL-5
# SK-OV-3 = test system: SK-OV-3
# SN12C = test system: SN12C
# SNB-19 = test system: SNB-19
# SNB-75 = test system: SNB-75
# SW-620 = test system: SW-620
# TK-10 = test system: TK-10
# U-251 = test system: U-251
# UACC-257 = test system: UACC-257
# UACC-62 = test system: UACC-62
# UO-31 = test system: UO-31
# XF498 = test system: XF498
# HCT-116 = test system: HCT-116
# RXF 393 = test system: RXF 393
# SNB-78 = test system: SNB-78
# SR = test system: SR
smiles,measurement,setting,value
CN1CCC23c4c5ccc(O)c4OC2C(=NN=C2CCC4(O)C6Cc7ccc(O)c8c7C4(CCN6C)C2O8)CCC3(O)C1C5 (stereo not given),GI50,786-0,> 100 µM (inactive)
same,GI50,A498,> 100 µM (inactive)
same,GI50,A549,> 100 µM (inactive)
same,GI50,ACHN,> 100 µM (inactive)
same,GI50,CAKI-1,> 100 µM (inactive)
same,GI50,CCRF-CEM,> 100 µM (inactive)
same,GI50,COLO 205,> 100 µM (inactive)
same,GI50,DLD-1,> 100 µM (inactive)
same,GI50,DMS-114,> 100 µM (inactive)
same,GI50,DMS-273,> 100 µM (inactive)
same,GI50,EKVX,> 100 µM (inactive)
same,GI50,HCC 2998,> 100 µM (inactive)
same,GI50,HCT-15,> 100 µM
same,GI50,HL-60,> 100 µM (inactive)
same,GI50,HOP-18,> 100 µM (inactive)
same,GI50,HOP-62,> 100 µM (inactive)
same,GI50,HOP-92,> 100 µM (inactive)
same,GI50,HT-29,> 100 µM (inactive)
same,GI50,IGROV-1,> 100 µM (inactive)
same,GI50,K562,> 100 µM (inactive)
same,GI50,KM-20L2,> 100 µM (inactive)
same,GI50,KM12,> 100 µM (inactive)
same,GI50,LOX IMVI,> 100 µM (inactive)
same,GI50,LXFL 529,> 100 µM (inactive)
same,GI50,M14,> 100 µM (inactive)
same,GI50,M19-MEL,> 100 µM (inactive)
same,GI50,MOLT-4,> 100 µM (inactive)
same,GI50,Malme-3M,> 100 µM (inactive)
same,GI50,NCI-H226,> 100 µM (inactive)
same,GI50,NCI-H23,> 100 µM (inactive)
same,GI50,NCI-H460,> 100 µM (inactive)
same,GI50,NCI-H522,> 100 µM (inactive)
same,GI50,OVCAR-3,> 100 µM (inactive)
same,GI50,OVCAR-4,> 100 µM (inactive)
same,GI50,OVCAR-5,> 100 µM (inactive)
same,GI50,OVCAR-8,> 100 µM (inactive)
same,GI50,RPMI-8226,> 100 µM (inactive)
same,GI50,RXF 631,> 100 µM (inactive)
same,GI50,SF-268,> 100 µM (inactive)
same,GI50,SF-295,> 100 µM (inactive)
same,GI50,SF-539,> 100 µM (inactive)
same,GI50,SK-MEL-28,> 100 µM (inactive)
same,GI50,SK-MEL-2,> 100 µM (inactive)
same,GI50,SK-MEL-5,> 100 µM (inactive)
same,GI50,SK-OV-3,> 100 µM (inactive)
same,GI50,SN12C,> 100 µM (inactive)
same,GI50,SNB-19,> 100 µM (inactive)
same,GI50,SNB-75,> 100 µM (inactive)
same,GI50,SW-620,> 100 µM (inactive)
same,GI50,TK-10,> 100 µM (inactive)
same,GI50,U-251,> 100 µM (inactive)
same,GI50,UACC-257,> 100 µM (inactive)
same,GI50,UACC-62,> 100 µM (inactive)
same,GI50,UO-31,> 100 µM (inactive)
same,GI50,XF498,> 100 µM (inactive)
O=C1/C(=C/c2ccc3c(c2)OCO3)SC2C=Nc3ccccc3N12 (stereo not given),GI50,786-0,> 100 µM (inactive)
same,GI50,A498,> 100 µM (inactive)
same,GI50,A549,> 100 µM (inactive)
same,GI50,ACHN,> 100 µM (inactive)
same,GI50,CAKI-1,> 100 µM (inactive)
same,GI50,COLO 205,> 100 µM (inactive)
same,GI50,DLD-1,> 100 µM (inactive)
same,GI50,DMS-114,93.5 µM (inactive)
same,GI50,DMS-273,> 100 µM (inactive)
same,GI50,EKVX,> 100 µM (inactive)
same,GI50,HCC 2998,> 100 µM (inactive)
same,GI50,HCT-116,> 100 µM (inactive)
same,GI50,HCT-15,> 100 µM
same,GI50,HOP-18,> 100 µM (inactive)
same,GI50,HOP-62,> 100 µM (inactive)
same,GI50,HOP-92,> 100 µM (inactive)
same,GI50,HT-29,> 100 µM (inactive)
same,GI50,IGROV-1,> 100 µM (inactive)
same,GI50,KM-20L2,> 100 µM (inactive)
same,GI50,KM12,> 100 µM (inactive)
same,GI50,LOX IMVI,> 10 µM (inactive)
same,GI50,LXFL 529,> 100 µM (inactive)
same,GI50,M14,> 100 µM (inactive)
same,GI50,M19-MEL,> 100 µM (inactive)
same,GI50,MOLT-4,> 100 µM (inactive)
same,GI50,Malme-3M,> 100 µM (inactive)
same,GI50,NCI-H226,> 100 µM (inactive)
same,GI50,NCI-H23,> 100 µM (inactive)
same,GI50,NCI-H460,> 100 µM (inactive)
same,GI50,NCI-H522,> 100 µM (inactive)
same,GI50,OVCAR-3,> 100 µM (inactive)
same,GI50,OVCAR-4,63.4 µM (inactive)
same,GI50,OVCAR-5,> 100 µM (inactive)
same,GI50,OVCAR-8,> 100 µM (inactive)
same,GI50,RXF 393,> 100 µM (inactive)
same,GI50,RXF 631,> 100 µM (inactive)
same,GI50,SF-268,> 100 µM (inactive)
same,GI50,SF-295,> 100 µM (inactive)
same,GI50,SF-539,86.1 µM (inactive)
same,GI50,SK-MEL-28,> 100 µM (inactive)
same,GI50,SK-MEL-2,> 100 µM (inactive)
same,GI50,SK-MEL-5,> 100 µM (inactive)
same,GI50,SN12C,> 100 µM (inactive)
same,GI50,SNB-19,> 100 µM (inactive)
same,GI50,SNB-75,28.9 µM (inactive)
same,GI50,SNB-78,92.9 µM (inactive)
same,GI50,SW-620,> 100 µM (inactive)
same,GI50,TK-10,> 100 µM (inactive)
same,GI50,U-251,> 100 µM (inactive)
same,GI50,UACC-257,> 100 µM (inactive)
same,GI50,UACC-62,54.8 µM (inactive)
same,GI50,UO-31,> 100 µM (inactive)
same,GI50,XF498,> 100 µM (inactive)
Cc1cc(Cl)ccc1NC(=O)CC/C(CC(=O)C(C)C)=N\NC(=O)C[n+]1ccccc1,GI50,786-0,> 100 µM (inactive)
same,GI50,A498,> 100 µM (inactive)
same,GI50,A549,> 100 µM (inactive)
same,GI50,ACHN,> 100 µM (inactive)
same,GI50,CAKI-1,> 100 µM (inactive)
same,GI50,CCRF-CEM,> 100 µM (inactive)
same,GI50,COLO 205,> 100 µM (inactive)
same,GI50,DMS-114,> 100 µM (inactive)
same,GI50,DMS-273,> 100 µM (inactive)
same,GI50,EKVX,> 100 µM (inactive)
same,GI50,HCC 2998,> 100 µM (inactive)
same,GI50,HCT-116,> 100 µM (inactive)
same,GI50,HCT-15,> 100 µM
same,GI50,HL-60,> 100 µM (inactive)
same,GI50,HOP-18,> 100 µM (inactive)
same,GI50,HOP-62,> 100 µM (inactive)
same,GI50,HOP-92,> 100 µM (inactive)
same,GI50,HT-29,> 100 µM (inactive)
same,GI50,IGROV-1,> 100 µM (inactive)
same,GI50,K562,> 100 µM (inactive)
same,GI50,KM-20L2,> 100 µM (inactive)
same,GI50,KM12,> 100 µM (inactive)
same,GI50,LOX IMVI,> 100 µM (inactive)
same,GI50,LXFL 529,> 100 µM (inactive)
same,GI50,M14,> 100 µM (inactive)
same,GI50,MOLT-4,> 100 µM (inactive)
same,GI50,Malme-3M,> 100 µM (inactive)
same,GI50,NCI-H226,> 100 µM (inactive)
same,GI50,NCI-H23,> 100 µM (inactive)
same,GI50,NCI-H460,> 100 µM (inactive)
same,GI50,NCI-H522,> 100 µM (inactive)
same,GI50,OVCAR-3,> 100 µM (inactive)
same,GI50,OVCAR-4,> 100 µM (inactive)
same,GI50,OVCAR-5,> 100 µM (inactive)
same,GI50,OVCAR-8,> 100 µM (inactive)
same,GI50,RPMI-8226,> 100 µM (inactive)
same,GI50,RXF 393,> 100 µM (inactive)
same,GI50,RXF 631,> 100 µM (inactive)
same,GI50,SF-268,> 100 µM (inactive)
same,GI50,SF-295,> 100 µM (inactive)
same,GI50,SF-539,> 100 µM (inactive)
same,GI50,SK-MEL-28,> 100 µM (inactive)
same,GI50,SK-MEL-2,> 100 µM (inactive)
same,GI50,SK-MEL-5,> 100 µM (inactive)
same,GI50,SK-OV-3,> 100 µM (inactive)
same,GI50,SN12C,> 100 µM (inactive)
same,GI50,SNB-19,> 100 µM (inactive)
same,GI50,SNB-75,> 100 µM (inactive)
same,GI50,SNB-78,> 100 µM (inactive)
same,GI50,SR,> 100 µM (inactive)
same,GI50,SW-620,> 100 µM (inactive)
same,GI50,TK-10,> 100 µM (inactive)
same,GI50,U-251,> 100 µM (inactive)
same,GI50,UACC-257,> 100 µM (inactive)
same,GI50,UACC-62,> 100 µM (inactive)
same,GI50,UO-31,> 100 µM (inactive)
same,GI50,XF498,> 100 µM (inactive)
